Source: ChEMBL document CHEMBL5291721, “A preclinical secondary pharmacology resource illuminates target-adverse drug reaction associations of marketed drugs” (Nat Commun, 2023)

Tests used:
Vasopressin V2 receptor = Vasopressin V2 receptor (Homo sapiens, UniProt P30518)
B1 bradykinin receptor = molecular target: T1, B1 bradykinin receptor (Homo sapiens, UniProt P46663)
T1 sequence (P46663 whole entry): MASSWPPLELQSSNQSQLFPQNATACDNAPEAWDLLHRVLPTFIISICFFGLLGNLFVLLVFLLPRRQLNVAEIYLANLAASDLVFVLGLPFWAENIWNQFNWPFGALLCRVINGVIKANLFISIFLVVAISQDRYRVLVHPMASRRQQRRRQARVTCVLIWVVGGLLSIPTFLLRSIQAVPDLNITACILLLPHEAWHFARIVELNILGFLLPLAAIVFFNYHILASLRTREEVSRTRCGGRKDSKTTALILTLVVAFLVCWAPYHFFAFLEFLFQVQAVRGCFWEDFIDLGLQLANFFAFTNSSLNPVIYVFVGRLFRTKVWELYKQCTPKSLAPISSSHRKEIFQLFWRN

[1] = molecular target: Voltage-dependent N-type calcium channel subunit alpha-1B (Rattus norvegicus, UniProt Q02294); format: functional
Chain of Voltage-dependent N-type calcium channel subunit alpha-1B (Q02294 whole entry): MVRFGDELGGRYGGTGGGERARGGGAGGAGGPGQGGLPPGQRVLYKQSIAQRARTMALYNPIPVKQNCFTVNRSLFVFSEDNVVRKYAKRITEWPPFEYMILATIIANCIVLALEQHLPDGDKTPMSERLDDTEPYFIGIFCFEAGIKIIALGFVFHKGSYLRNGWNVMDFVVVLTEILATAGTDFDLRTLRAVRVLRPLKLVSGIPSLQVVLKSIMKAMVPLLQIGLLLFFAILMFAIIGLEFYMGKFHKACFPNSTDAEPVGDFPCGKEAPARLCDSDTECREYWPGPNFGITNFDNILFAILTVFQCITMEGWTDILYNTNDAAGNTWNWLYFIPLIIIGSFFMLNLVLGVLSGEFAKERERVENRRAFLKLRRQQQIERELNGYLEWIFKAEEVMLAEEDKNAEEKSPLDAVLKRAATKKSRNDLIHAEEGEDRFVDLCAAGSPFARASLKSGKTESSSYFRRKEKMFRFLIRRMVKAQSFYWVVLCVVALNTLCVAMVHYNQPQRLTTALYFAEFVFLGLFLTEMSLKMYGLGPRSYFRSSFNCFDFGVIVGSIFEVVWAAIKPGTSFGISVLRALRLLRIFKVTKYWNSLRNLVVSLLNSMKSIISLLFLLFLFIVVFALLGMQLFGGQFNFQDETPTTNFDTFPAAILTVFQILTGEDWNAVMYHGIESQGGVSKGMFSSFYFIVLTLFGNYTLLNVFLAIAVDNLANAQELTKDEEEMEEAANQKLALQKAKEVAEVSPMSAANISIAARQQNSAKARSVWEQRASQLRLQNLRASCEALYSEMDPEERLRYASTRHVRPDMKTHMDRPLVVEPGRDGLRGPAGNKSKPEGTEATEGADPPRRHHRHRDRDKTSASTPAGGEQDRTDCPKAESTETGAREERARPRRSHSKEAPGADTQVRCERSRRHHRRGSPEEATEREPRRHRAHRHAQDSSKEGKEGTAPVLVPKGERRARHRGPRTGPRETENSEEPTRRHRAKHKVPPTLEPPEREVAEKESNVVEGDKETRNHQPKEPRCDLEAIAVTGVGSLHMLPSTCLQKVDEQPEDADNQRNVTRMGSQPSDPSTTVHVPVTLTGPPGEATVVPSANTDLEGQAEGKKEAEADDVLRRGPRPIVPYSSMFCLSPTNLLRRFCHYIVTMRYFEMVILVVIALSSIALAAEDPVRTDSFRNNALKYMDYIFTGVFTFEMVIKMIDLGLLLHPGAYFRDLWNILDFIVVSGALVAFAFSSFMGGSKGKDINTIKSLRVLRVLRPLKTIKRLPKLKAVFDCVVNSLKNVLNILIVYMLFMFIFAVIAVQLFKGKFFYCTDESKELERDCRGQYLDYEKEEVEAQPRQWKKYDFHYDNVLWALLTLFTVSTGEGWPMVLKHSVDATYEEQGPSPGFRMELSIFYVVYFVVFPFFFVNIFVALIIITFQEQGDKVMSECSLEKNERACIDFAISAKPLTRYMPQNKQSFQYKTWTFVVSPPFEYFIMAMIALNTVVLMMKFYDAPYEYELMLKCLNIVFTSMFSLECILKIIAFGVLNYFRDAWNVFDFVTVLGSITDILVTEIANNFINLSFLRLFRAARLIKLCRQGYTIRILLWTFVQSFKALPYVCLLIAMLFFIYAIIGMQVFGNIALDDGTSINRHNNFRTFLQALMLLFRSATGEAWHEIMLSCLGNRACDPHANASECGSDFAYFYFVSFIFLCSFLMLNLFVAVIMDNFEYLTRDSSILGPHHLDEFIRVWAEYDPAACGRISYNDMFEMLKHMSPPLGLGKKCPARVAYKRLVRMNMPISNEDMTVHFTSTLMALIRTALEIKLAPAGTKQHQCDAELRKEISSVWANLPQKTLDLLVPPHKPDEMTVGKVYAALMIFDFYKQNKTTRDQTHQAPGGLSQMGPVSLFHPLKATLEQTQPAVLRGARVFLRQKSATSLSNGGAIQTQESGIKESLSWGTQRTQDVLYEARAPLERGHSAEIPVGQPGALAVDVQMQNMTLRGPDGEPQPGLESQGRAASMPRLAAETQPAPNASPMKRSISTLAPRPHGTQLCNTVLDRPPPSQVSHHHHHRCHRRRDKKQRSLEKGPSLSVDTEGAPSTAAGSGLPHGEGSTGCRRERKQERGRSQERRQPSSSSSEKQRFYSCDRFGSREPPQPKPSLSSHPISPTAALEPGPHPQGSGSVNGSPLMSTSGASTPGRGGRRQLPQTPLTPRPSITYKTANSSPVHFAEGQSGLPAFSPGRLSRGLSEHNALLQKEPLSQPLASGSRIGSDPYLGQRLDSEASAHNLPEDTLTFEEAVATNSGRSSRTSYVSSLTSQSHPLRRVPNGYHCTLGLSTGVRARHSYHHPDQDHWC

[2] = molecular target: T2, Gastric inhibitory polypeptide receptor (Homo sapiens, UniProt P48546)
T2 sequence (P48546 whole entry): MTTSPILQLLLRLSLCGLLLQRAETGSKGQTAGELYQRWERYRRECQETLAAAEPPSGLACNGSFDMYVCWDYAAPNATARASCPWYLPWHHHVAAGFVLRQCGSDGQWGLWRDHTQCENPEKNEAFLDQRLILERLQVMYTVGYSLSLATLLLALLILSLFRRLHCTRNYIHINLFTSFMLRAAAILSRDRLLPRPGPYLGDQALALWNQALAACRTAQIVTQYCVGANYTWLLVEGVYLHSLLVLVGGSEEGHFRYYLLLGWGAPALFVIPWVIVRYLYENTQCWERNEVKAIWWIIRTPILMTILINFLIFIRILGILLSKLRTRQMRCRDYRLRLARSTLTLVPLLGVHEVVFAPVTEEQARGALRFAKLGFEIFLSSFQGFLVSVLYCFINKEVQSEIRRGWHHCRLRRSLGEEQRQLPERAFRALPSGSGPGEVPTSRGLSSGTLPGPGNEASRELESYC

[3] = molecular target: T3, Alpha-2A adrenergic receptor (Homo sapiens, UniProt P08913)
T3 sequence (P08913 whole entry): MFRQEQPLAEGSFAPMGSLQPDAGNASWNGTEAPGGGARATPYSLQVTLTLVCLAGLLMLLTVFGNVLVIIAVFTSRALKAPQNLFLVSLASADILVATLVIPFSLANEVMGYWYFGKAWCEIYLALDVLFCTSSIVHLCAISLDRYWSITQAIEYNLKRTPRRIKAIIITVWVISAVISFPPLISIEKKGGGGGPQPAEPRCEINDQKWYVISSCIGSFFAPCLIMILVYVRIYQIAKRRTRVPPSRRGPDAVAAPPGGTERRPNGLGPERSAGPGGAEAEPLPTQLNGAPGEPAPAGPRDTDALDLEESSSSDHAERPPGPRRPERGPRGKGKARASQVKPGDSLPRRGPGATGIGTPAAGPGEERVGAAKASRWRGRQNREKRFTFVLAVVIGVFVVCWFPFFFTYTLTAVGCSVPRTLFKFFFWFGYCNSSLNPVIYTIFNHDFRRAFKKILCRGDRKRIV

Mu-type opioid receptor = Mu-type opioid receptor (Homo sapiens, UniProt P35372)
Chain of Mu-type opioid receptor (P35372 whole entry): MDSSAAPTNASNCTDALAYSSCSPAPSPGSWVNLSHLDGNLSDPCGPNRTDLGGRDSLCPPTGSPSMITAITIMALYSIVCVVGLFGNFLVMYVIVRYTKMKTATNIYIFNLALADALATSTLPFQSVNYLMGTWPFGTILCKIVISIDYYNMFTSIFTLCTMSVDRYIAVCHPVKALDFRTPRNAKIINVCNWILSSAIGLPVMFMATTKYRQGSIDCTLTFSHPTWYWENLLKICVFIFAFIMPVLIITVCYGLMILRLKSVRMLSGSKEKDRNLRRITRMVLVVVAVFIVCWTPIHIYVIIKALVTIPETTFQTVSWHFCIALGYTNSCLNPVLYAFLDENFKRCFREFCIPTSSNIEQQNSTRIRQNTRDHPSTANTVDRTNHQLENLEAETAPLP

Histamine H3 receptor = Histamine H3 receptor (Homo sapiens, UniProt Q9Y5N1)
Chain of Histamine H3 receptor (Q9Y5N1 whole entry): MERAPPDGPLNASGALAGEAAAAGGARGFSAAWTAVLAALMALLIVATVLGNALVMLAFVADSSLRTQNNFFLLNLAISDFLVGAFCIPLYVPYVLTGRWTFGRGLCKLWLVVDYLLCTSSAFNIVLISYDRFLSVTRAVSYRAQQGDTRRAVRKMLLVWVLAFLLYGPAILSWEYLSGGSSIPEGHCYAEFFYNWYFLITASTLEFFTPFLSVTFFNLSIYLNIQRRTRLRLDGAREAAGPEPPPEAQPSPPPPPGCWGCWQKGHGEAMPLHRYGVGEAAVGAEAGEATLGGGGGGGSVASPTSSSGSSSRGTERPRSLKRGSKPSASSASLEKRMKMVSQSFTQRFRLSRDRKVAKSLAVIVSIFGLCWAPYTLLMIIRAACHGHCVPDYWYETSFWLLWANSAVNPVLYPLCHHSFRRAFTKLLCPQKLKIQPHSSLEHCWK

[4] = molecular target: Prostaglandin G/H synthase 1 (Homo sapiens, UniProt P23219); format: functional
Chain of Prostaglandin G/H synthase 1 (P23219 whole entry): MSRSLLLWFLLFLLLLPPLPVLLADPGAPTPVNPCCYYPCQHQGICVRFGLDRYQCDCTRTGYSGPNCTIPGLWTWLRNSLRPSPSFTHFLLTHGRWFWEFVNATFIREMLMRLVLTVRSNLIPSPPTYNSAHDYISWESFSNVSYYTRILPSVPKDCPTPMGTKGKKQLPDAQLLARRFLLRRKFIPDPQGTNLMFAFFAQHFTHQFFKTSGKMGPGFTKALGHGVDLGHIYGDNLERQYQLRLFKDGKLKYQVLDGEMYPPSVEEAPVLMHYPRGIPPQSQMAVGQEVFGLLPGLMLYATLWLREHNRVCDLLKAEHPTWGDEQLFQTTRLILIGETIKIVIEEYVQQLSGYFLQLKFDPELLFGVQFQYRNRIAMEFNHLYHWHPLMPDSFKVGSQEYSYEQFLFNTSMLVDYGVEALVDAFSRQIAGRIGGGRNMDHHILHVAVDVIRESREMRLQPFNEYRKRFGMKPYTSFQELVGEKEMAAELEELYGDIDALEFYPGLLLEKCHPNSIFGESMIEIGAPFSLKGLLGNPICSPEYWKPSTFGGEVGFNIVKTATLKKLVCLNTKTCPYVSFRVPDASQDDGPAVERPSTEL

[5] = molecular target: Sodium channel protein type 5 subunit alpha (Homo sapiens, UniProt Q14524); format: functional, cell-based
[6] = molecular target: Sodium-dependent noradrenaline transporter (Homo sapiens, UniProt P23975)
Chain of Sodium-dependent noradrenaline transporter (P23975 whole entry): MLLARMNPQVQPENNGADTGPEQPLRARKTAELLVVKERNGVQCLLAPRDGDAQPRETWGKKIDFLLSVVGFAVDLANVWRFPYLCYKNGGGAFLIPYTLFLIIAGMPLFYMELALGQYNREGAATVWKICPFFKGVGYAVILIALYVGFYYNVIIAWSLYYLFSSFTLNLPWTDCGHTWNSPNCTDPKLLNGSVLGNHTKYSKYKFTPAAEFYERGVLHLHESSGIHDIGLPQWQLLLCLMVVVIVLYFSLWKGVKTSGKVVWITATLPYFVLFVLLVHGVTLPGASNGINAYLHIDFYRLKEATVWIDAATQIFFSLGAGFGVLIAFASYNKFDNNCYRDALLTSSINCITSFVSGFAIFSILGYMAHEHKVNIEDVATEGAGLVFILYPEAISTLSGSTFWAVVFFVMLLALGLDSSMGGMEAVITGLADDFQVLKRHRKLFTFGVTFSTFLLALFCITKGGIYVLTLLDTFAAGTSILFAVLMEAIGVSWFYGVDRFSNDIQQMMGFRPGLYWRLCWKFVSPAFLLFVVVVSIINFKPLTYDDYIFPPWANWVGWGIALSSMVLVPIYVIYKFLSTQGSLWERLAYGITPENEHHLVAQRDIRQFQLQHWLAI

Progesterone receptor = molecular target: T4, Progesterone receptor (Homo sapiens, UniProt P06401); format: functional
T4 sequence (P06401 whole entry): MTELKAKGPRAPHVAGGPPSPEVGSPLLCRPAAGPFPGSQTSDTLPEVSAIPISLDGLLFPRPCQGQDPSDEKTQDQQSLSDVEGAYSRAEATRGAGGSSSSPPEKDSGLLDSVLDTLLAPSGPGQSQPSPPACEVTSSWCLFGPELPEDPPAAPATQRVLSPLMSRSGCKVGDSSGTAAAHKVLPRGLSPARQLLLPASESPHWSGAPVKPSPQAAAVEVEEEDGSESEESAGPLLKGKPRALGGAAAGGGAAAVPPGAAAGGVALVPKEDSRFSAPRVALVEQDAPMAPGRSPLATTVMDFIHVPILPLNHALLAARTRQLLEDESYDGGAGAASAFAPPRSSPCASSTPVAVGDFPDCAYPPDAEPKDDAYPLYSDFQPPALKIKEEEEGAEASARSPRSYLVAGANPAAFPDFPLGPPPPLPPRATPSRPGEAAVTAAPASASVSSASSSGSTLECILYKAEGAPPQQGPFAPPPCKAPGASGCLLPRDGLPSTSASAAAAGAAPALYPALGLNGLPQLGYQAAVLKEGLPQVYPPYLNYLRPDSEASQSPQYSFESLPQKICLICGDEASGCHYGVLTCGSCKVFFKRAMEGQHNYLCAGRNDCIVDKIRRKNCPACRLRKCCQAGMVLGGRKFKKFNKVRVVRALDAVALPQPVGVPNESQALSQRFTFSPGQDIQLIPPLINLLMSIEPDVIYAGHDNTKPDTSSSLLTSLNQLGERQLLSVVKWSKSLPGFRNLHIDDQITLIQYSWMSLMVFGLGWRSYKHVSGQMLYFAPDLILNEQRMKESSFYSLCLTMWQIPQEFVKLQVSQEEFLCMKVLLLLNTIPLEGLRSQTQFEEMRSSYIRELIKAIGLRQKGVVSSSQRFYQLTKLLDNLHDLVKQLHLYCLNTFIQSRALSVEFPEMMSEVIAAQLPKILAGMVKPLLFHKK
Also: assay procedure not described here.

Chain of Vasopressin V2 receptor (P30518 whole entry): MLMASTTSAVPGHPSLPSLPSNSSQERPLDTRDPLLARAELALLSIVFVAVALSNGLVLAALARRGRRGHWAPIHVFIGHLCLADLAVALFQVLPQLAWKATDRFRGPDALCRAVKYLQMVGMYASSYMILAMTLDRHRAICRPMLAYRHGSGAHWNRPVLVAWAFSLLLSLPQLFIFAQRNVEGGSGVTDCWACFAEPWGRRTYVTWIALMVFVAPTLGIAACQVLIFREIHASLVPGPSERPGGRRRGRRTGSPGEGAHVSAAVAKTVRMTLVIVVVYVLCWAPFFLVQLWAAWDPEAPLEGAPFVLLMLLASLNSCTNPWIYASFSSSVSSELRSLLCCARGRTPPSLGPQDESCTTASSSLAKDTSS

AC50 (Vasopressin V2 receptor) [µM]	AC50 (B1 bradykinin receptor) [µM]	AC50 [1] [µM]	AC50 [2] [µM]	AC50 [3] [µM]	AC50 (Mu-type opioid receptor) [µM]	AC50 (Progesterone receptor) [µM]	SMILES	AC50 (Histamine H3 receptor) [µM]	AC50 [4] [µM]	AC50 [5] [µM]	AC50 [6] [µM]
> 30	> 30	> 10	> 30	> 10	> 10		NC(N)=Nc1nc(CSCCC(N)=NS(N)(=O)=O)cs1 [FAMOTIDINE]				
							O=C(COc1ccc(Cl)cc1)N1CCN(Cc2ccc3c(c2)OCO3)CC1 [FIPEXIDE]	> 30	> 30	> 50	20.4
> 30	> 30	> 10	> 30	> 10	> 10		NS(=O)(=O)c1cc2c(cc1Cl)NCNS2(=O)=O [HYDROCHLOROTHIAZIDE]				
> 30	> 30	> 10	> 30	7.32	> 30		CCN(CC)CCNC(=O)c1cc(Cl)c(N)cc1OC [METOCLOPRAMIDE]				
> 30	> 30	> 10	> 30		3.8		CCc1nn(CCCN2CCN(c3cccc(Cl)c3)CC2)c(=O)n1CCOc1ccccc1 [NEFAZODONE]				
							CC(C)OC(=O)[C@H](C)N[P@](=O)(OC[C@H]1O[C@@H](n2ccc(=O)[nH]c2=O)[C@](C)(F)[C@@H]1O)Oc1ccccc1 [SOFOSBUVIR]	> 30	> 30	> 50	> 30
> 30						23	CCCS(=O)(=O)Nc1ccc(F)c(C(=O)c2c[nH]c3ncc(-c4ccc(Cl)cc4)cc23)c1F [VEMURAFENIB]			> 30	
							CCOC(=O)N[C@@H]1CC[C@@H]2[C@@H](C1)C[C@H]1C(=O)O[C@H](C)[C@H]1[C@H]2/C=C/c1ccc(-c2cccc(F)c2)cn1 [VORAPAXAR]	> 10	> 30	> 50	4.56
> 30	> 10	> 10		> 10	> 30	> 30	O=C(CCCCCCC(=O)Nc1ccccc1)NO [VORINOSTAT]				

SMILES	AC50 (Vasopressin V2 receptor) [µM]	AC50 (B1 bradykinin receptor) [µM]	AC50 [1] [µM]	AC50 [2] [µM]	AC50 [3] [µM]	AC50 (Mu-type opioid receptor) [µM]	AC50 (Progesterone receptor) [µM]	AC50 (Histamine H3 receptor) [µM]	AC50 [4] [µM]	AC50 [5] [µM]	AC50 [6] [µM]
CCc1ccc(CCOc2ccc(CC3SC(=O)NC3=O)cc2)nc1 (configuration not stated) [PIOGLITAZONE]	> 30	> 30	> 10	> 30	7.05	> 10		> 3	> 30		> 30
CC(C(=O)O)c1ccc(N2CC=CC2)c(Cl)c1 (configuration not stated) [PIRPROFEN]	> 30	> 30	> 10	> 30	> 10	> 30		> 30	0.115		> 30
NC(=O)c1cnccn1 [PYRAZINAMIDE]	> 30	> 30	> 10	> 30	> 10	> 30	> 30	> 30	> 30		> 30
